Test results: patent US20080261977A1, “Pyrimidine Derivatives as Cannabinoid Receptor Modulators” (priority 2004, published 2008)
pEC50: −log10 of the molar value. Where a name gives a salt, the structure may show the parent alone. Read-outs that look alike come from different tables or passages of the source.

Key:
[1] = target: T1, human cannabinoid CB2 receptor (Homo sapiens, UniProt P34972); experiment: Cannabinoid CB2 receptor agonist activity, yeast (Saccharomyces cerevisiae) cells expressing the receptor, FDGlu fluorescence; type: cell-based; details: for Emax: read-out: efficacy (Emax relative to HU210) at the cloned human cannabinoid CB2 receptor
T1 construct: expressed in transfected cells; host or cells: Saccharomyces cerevisiae strain MMY23 (cassette integrated at the ura3 locus; chimeric Gpa1/Gαi3)
Outline: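 S. cerevisiae MMY23 expressing human CB2 with a Gpa1/Gαi3 chimeric G-protein were incubated 24 h at 30° C with agonist in selective medium containing 3-aminotriazole and FDGlu, pH 7.0. Growth-linked fluorescein fluorescence (485/535 nm) gave EC50 by four-parameter fit; Emax and EMR expressed relative to HU210.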

[2] = target: T2, human cannabinoid CB1 receptor (Homo sapiens, UniProt P21554); experiment: Cannabinoid CB1 receptor agonist activity, yeast (Saccharomyces cerevisiae) cells expressing the receptor, FDGlu fluorescence; type: cell-based; details: for Emax: read-out: efficacy (Emax relative to HU210) at the cloned human CB1 receptor
T2 construct: expressed in transfected cells; host or cells: Saccharomyces cerevisiae strain MMY23 (cassette integrated at the ura3 locus; chimeric Gpa1/Gαi3)
Protocol: The cannabinoid CB1 receptor agonist activity of the compounds of formula (I) was determined in accordance with the following experimental method.
Yeast (Saccharomyces cerevisiae) cells expressing the human cannabinoid CB1 receptor were generated by integration of an expression cassette into the ura3 chromosomal locus of yeast strain MMY23. This cassette consisted of DNA sequence encoding the human CB1 receptor flanked by the yeast GPD promoter to the 5′ end of CB 1 and a yeast transcriptional terminator sequence to the 3′ end of CB1. MMY23 expresses a yeast/mammalian chimeric G-protein alpha subunit in which the C-terminal 5 amino acids of Gpal are replaced with the C-terminal 5 amino acids of human Gαi3 (as described in Brown et al. (2000), Yeast 16:11-22). Cells were grown at 30° C. in liquid Synthetic Complete (SC) yeast media (Guthrie and Fink (1991), Methods in Enzymology, Vol. 194) lacking uracil, tryptophan, adenine and leucine to late logarithmic phase (approximately 6 OD600/ml).
Agonists were prepared as 10 mM stocks in DMSO. EC50 values (the concentration required to produce 50% maximal response) were estimated using dilutions of between 3- and 5-fold (BiomekFX, Beckman) into DMSO. Agonist solutions in DMSO (1% final assay volume) were transferred into black, clear bottom, microtitre plates from NUNC (96- or 384-well). Cells were suspended at a density of 0.2 OD600/ml in SC media lacking histidine, uracil, tryptophan, adenine and leucine and supplemented with 10 mM 3-aminotriazole, 0.1M sodium phosphate pH 7.0, and 20 μM fluorescein di-β-D-glucopyranoside (FDGlu). This mixture (50 ul per well for 384-well plates, 200 ul per well for 96-well plates) was added to agonist in the assay plates (Multidrop 384, Labsystems). After incubation at 30° C. for 24 hours, fluorescence resulting from degradation of FDGlu to fluorescein due to exoglucanase, an endogenous yeast enzyme produced during agonist-stimulated cell growth, was determined using a Spectrofluor microtitre plate reader (Tecan; excitation wavelength: 485 nm; emission wavelength: 535 nm). Fluorescence was plotted against compound concentration and iteratively curve fitted using a four parameter fit to generate a concentration effect value. Efficacy (Emax) was calculated from the equation […]
where Max[compound X] and Min[compound X] are the fitted maximum and minimum respectively from the concentration effect curve for compound X, and Max[HU210] and Min[HU210] are the fitted maximum and minimum respectively from the concentration effect curve for (6aR,10aR)-3-(1,1′-Dimethylheptyl)-6a,7,10,10a-tetrahydro-1 hydroxy-6,6-dimethyl-6H-dibenzo[b,d]pyran-9-methanol (HU210; available from Tocris). Equieffective molar ratio (EMR) values were calculated from the equation […]

[3] = yeast agonist assay, read-out: EC50 at the cloned human cannabinoid CB2 receptor

T2 sequence (P21554 whole entry): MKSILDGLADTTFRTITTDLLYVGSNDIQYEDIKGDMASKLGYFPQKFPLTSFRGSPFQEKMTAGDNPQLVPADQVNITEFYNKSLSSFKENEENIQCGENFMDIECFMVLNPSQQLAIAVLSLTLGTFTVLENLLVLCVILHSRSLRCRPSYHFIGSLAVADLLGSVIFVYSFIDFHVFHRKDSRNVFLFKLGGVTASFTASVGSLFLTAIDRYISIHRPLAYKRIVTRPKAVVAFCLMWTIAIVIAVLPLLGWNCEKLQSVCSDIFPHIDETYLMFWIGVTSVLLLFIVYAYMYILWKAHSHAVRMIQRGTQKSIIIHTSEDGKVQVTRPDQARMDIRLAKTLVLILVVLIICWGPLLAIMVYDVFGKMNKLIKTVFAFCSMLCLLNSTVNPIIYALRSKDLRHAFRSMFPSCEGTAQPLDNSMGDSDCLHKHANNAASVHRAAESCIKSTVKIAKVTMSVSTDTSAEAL
T1 sequence (P34972 whole entry): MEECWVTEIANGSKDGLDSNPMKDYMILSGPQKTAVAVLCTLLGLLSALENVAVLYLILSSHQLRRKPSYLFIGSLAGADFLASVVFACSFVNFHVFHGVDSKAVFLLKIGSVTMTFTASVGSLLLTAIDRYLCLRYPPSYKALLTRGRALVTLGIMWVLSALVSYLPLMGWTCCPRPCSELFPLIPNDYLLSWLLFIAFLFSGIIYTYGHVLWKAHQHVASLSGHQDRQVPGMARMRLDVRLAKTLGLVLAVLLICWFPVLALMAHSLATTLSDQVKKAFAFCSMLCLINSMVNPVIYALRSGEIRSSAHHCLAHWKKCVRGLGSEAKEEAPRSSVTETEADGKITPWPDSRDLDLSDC

Row | Compound | pEC50 [1] | Emax [1] | pEC50 [2] | Emax [2] | pEC50 [1, 3] | Emax ([1]; yeast agonist assay) | pEC50 ([2]; yeast agonist assay, read-out: EC50 at the cloned human CB1 receptor)
1 | CC(NCC1CCOCC1)c1cnc(Nc2ccc(Cl)cc2Cl)nc1C(F)(F)F (centres unmarked) [Example 91, (2,4-Dichlorophenyl)-(5-{1-[(tetrahydro-pyran-4-ylmethyl)-amino]-ethyl}-4-trifluoromethyl-pyrimidin-2-yl)-amine] | > 6.52 | > 50% | 6.00 to 6.52 | 50 to 100% |  |  | 
2 | CC(NCC1CCCCC1)c1cnc(Nc2cccc(Cl)c2)nc1C(F)(F)F (centres unmarked) [Example 89, (3-Chlorophenyl)-{5-[1-(cyclohexylmethyl-amino)-ethyl]-4-trifluoromethyl-pyrimidin-2-yl}-amine, formate] |  |  |  | 50 to 100% | > 6.52 | > 50% | 6.00 to 6.52
3 | FC(F)(F)c1nc(Nc2cccc(Cl)c2)ncc1CNCCc1ccccc1 [Example 45, (3-Chlorophenyl)-[5-(phenethylamino-methyl)-4-trifluoromethyl-pyrimidin-2-yl]-amine, formate] |  | > 50% |  |  | 6.00 to 6.52 |  | 
4 | COCCNCc1cnc(Nc2cccc(Cl)c2)nc1C(C)C [Example 9, (3-Chloro-phenyl)-{4-isopropyl-5-[(2-methoxy-ethylamino)-methyl]-pyrimidin-2-yl}-amineformate] |  |  |  |  | > 6.52 | > 50% | 
5 | CC(NC1CC1)c1cnc(Nc2cccc(Cl)c2)nc1C(F)(F)F (centres unmarked) [Example 85] | > 6.52 | > 50% |  |  |  |  | 
